Laboratory results taken from DBAASP.
≈ marks a conversion by molar mass, not a printed value.

Key:
Experiment in all cases: ≥ marks a high value that may be exact or a test limit, other limits are often not marked, values filed in µg/mL are converted to µM
[1] = test system: Escherichia coli
[2] = test system: Bacillus cereus
[3] = test system: Pseudomonas aeruginosa
[4] = test system: Escherichia coli ATCC 25922
[5] = test system: Staphylococcus epidermidis ATCC 12228
[6] = test system: Staphylococcus aureus
[7] = test system: Pseudomonas aeruginosa PAO1
[8] = test system: Staphylococcus aureus ATCC 25923
[9] = test system: Escherichia coli UB1005

Row | MIC [1] | MIC [3] | SMILES | also measured
1 | > 123 µM | – | CC(C)[C@H](NC(=O)CNC(=O)CNC(=O)[C@@H](NC(=O)[C@@H](N)Cc1ccccc1)C(C)C)C(=O)N[C@@H](C)C(=O)N[C@@H](CO)C(=O)N[C@@H](CCCCN)C(=O)N[C@H](C(=O)N[C@H](C(=O)N1CCC[C@H]1C(=O)N[C@@H](CO)C(=O)N[C@H](C(=O)N[C@@H](Cc1ccc(O)cc1)C(=O)N[C@@H](CS)C(=O)N[C@@H](CCCCN)C(=O)N[C@H](C(=O)N[C@@H](CO)C(=O)N[C@@H](CCCCN)C(=O)N[C@@H](CCCCN)C(=O)O)C(C)C)C(C)C)C(C)C)C(C)C [FVGGVASKVVPSVYCKVSKK] | MIC [2]: ≥ 123 µM
2 | – | 5.18 µM (≈ 12.5 µg/mL) | CC[C@H](C)[C@H](NC(=O)[C@H](Cc1ccccc1)NC(=O)[C@H](CO)NC(=O)[C@H](CCCCN)NC(=O)[C@H](Cc1ccccc1)NC(=O)[C@@H](N)CCCCN)C(=O)N[C@@H](CCCCN)C(=O)N[C@@H](CCCCN)C(=O)N[C@@H](CC(C)C)C(=O)N[C@H](C(=O)N[C@@H](CO)C(=O)N[C@@H](CCCCN)C(=O)N[C@@H](Cc1ccccc1)C(=O)N[C@@H](CC(C)C)C(=O)N[C@@H](Cc1cnc[nH]1)C(=O)N[C@@H](CO)C(=O)N[C@@H](C)C(=O)N[C@@H](CCCCN)C(=O)N[C@@H](CCCCN)C(=O)N[C@@H](Cc1ccccc1)C(N)=O)[C@@H](C)O [KFKSFIKKLTSKFLHSAKKF] | –
3 | – | 2.63 µM (≈ 6.25 µg/mL) | CC[C@H](C)[C@H](NC(=O)[C@H](Cc1ccccc1)NC(=O)[C@H](CO)NC(=O)[C@H](CCCCN)NC(=O)[C@H](Cc1c[nH]c2ccccc12)NC(=O)[C@@H](N)CCCCN)C(=O)N[C@@H](CCCCN)C(=O)N[C@@H](CCCCN)C(=O)N[C@@H](CC(C)C)C(=O)N[C@H](C(=O)N[C@@H](CO)C(=O)N[C@@H](CCCCN)C(=O)N[C@@H](C)C(=O)N[C@@H](CC(C)C)C(=O)N[C@@H](Cc1cnc[nH]1)C(=O)N[C@@H](CO)C(=O)N[C@@H](C)C(=O)N[C@@H](CCCCN)C(=O)N[C@@H](CCCCN)C(=O)N[C@@H](Cc1ccccc1)C(N)=O)[C@@H](C)O [KWKSFIKKLTSKALHSAKKF] | –
4 | – | – | CC[C@H](C)[C@H](NC(=O)CN)C(=O)N[C@@H](CCCCN)C(=O)N[C@@H](CCCCN)C(=O)N[C@@H](Cc1c[nH]c2ccccc12)C(=O)N[C@@H](CC(C)C)C(=O)N[C@@H](Cc1cnc[nH]1)C(=O)N[C@@H](CO)C(=O)N[C@@H](C)C(=O)N[C@@H](CCCCN)C(=O)N[C@@H](CCCCN)C(=O)N1CCC[C@H]1C(=O)NCC(=O)N[C@@H](CCCCN)C(=O)N[C@@H](CCCCN)C(=O)N[C@@H](Cc1ccccc1)C(=O)N[C@H](C(=O)N[C@@H](CCCCN)C(=O)N[C@@H](CCCCN)C(=O)N[C@H](C(=O)N[C@@H](CCSC)C(=O)N[C@@H](CC(N)=O)C(=O)N[C@@H](CO)C(N)=O)[C@@H](C)CC)C(C)C [GIKKWLHSAKKPGKKFVKKIMNS] | MIC [4]: 5 µM (≈ 13.3 µg/mL); MIC [5]: 5 µM (≈ 13.3 µg/mL)
5 | – | – | CC(C)C[C@H](NC(=O)[C@H](CC(N)=O)NC(=O)[C@H](Cc1c[nH]c2ccccc12)NC(=O)[C@H](CCCN=C(N)N)NC(=O)[C@H](C)NC(=O)[C@H](CCCCN)NC(=O)[C@H](CCCCN)NC(=O)CNC(=O)[C@H](CC(C)C)NC(=O)[C@H](Cc1ccc(O)cc1)NC(=O)[C@H](Cc1ccc(O)cc1)NC(=O)CNC(=O)[C@H](Cc1c[nH]c2ccccc12)NC(=O)[C@@H](N)CO)C(=O)O [SWGYYLGKKARWNL] | MIC [5]: > 50 µM
6 | > 120 µM | – | CSCC[C@H](N)C(=O)N[C@H](C(=O)N[C@H](C(=O)N[C@@H](Cc1ccccc1)C(=O)N[C@@H](CO)C(=O)N[C@H](C(=O)N1CCC[C@H]1C(=O)N[C@@H](CCCCN)C(=O)N[C@@H](Cc1ccccc1)C(=O)N[C@@H](CCCCN)C(=O)N[C@@H](CO)C(=O)N[C@H](C(=O)N[C@H](C(=O)N[C@@H](C)C(=O)N[C@@H](CCCCN)C(=O)N[C@@H](CC(C)C)C(=O)N[C@@H](CC(C)C)C(=O)N[C@@H](CO)C(=O)N[C@@H](CO)C(=O)N[C@@H](C)C(=O)O)C(C)C)[C@@H](C)O)C(C)C)C(C)C)C(C)C [MVVFSVPKFKSTVAKLLSSA] | MIC [2]: ≥ 120 µM
7 | > 130 µM | – | CC[C@H](C)[C@H](NC(=O)[C@@H](NC(=O)[C@H](C)NC(=O)[C@@H]1CCCN1C(=O)[C@@H](NC(=O)[C@@H](NC(=O)[C@H](CCCCN)NC(=O)[C@H](CO)NC(=O)[C@H](C)NC(=O)[C@H](CC(C)C)NC(=O)[C@H](CCCN=C(N)N)NC(=O)CNC(=O)[C@H](CC(C)C)NC(=O)[C@H](C)NC(=O)[C@@H](N)CO)C(C)C)C(C)C)C(C)C)C(=O)NCC(=O)N[C@@H](CCCCN)C(=O)N[C@H](C(=O)N[C@H](C(=O)N[C@H](C(=O)O)[C@@H](C)O)[C@@H](C)O)C(C)C [SALGRLASKVVPAVIGKVTT] | MIC [2]: ≥ 130 µM
8 | 19 µM (≈ 48.9 µg/mL) | 19 µM (≈ 48.9 µg/mL) | CC[C@H](C)[C@H](NC(=O)CN)C(=O)NCC(=O)N[C@@H](Cc1cnc[nH]1)C(=O)N[C@@H](Cc1ccccc1)C(=O)N[C@@H](CC(C)C)C(=O)N[C@@H](Cc1cnc[nH]1)C(=O)N[C@@H](CCCCN)C(=O)N[C@H](C(=O)N[C@@H](CCCCN)C(=O)N[C@@H](CO)C(=O)N[C@@H](Cc1ccccc1)C(=O)NCC(=O)N[C@@H](CCCCN)C(=O)N[C@@H](CO)C(=O)N[C@@H](Cc1c[nH]c2ccccc12)C(=O)N[C@H](C(=O)NCC(=O)N[C@@H](CCC(=O)O)C(=O)N[C@H](C(=O)N[C@@H](CCSC)C(=O)N[C@@H](CC(N)=O)C(=O)N[C@@H](CO)C(N)=O)[C@@H](C)CC)[C@@H](C)CC)C(C)C [GIGHFLHKVKSFGKSWIGEIMNS] | MIC [6]: 76 µM (≈ 195 µg/mL)
9 | – | 2.56 µM (≈ 6.25 µg/mL) | CC[C@H](C)[C@H](NC(=O)[C@H](Cc1ccccc1)NC(=O)[C@H](CO)NC(=O)[C@H](CCCCN)NC(=O)[C@H](Cc1c[nH]c2ccccc12)NC(=O)[C@@H](N)CCCCN)C(=O)N[C@@H](CCCCN)C(=O)N[C@@H](CCCCN)C(=O)N[C@@H](CC(C)C)C(=O)N[C@H](C(=O)N[C@@H](CO)C(=O)N[C@@H](CCCCN)C(=O)N[C@@H](Cc1ccccc1)C(=O)N[C@@H](CC(C)C)C(=O)N[C@@H](Cc1cnc[nH]1)C(=O)N[C@@H](CO)C(=O)N[C@@H](C)C(=O)N[C@@H](CC(N)=O)C(=O)N[C@@H](CCCCN)C(=O)N[C@@H](Cc1ccccc1)C(N)=O)[C@@H](C)O [KWKSFIKKLTSKFLHSANKF] | –
10 | > 128 µM | – | CC(C)C[C@H](NC(=O)[C@H](C)NC(=O)[C@@H](NC(=O)CNC(=O)[C@H](CCCCN)NC(=O)[C@@H](NC(=O)[C@@H](NC(=O)[C@H](CO)NC(=O)[C@H](CO)NC(=O)CNC(=O)[C@@H](NC(=O)[C@@H]1CCCN1C(=O)[C@H](CCCCN)NC(=O)[C@@H](NC(=O)[C@@H](N)CO)C(C)C)C(C)C)C(C)C)C(C)C)[C@@H](C)O)C(=O)N[C@H](C(=O)N[C@@H](CCCCN)C(=O)N[C@@H](Cc1ccccc1)C(=O)N[C@@H](Cc1ccccc1)C(=O)NCC(=O)O)C(C)C [SVKPVGSSVVKGTALVKFFG] | MIC [2]: ≥ 128 µM
11 | – | 10.1 µM (≈ 25 µg/mL) | CC[C@H](C)[C@H](NC(=O)[C@H](Cc1ccccc1)NC(=O)[C@H](CO)NC(=O)[C@H](CCCCN)NC(=O)[C@H](Cc1c[nH]c2ccccc12)NC(=O)[C@@H](N)CCCCN)C(=O)N[C@@H](CCCCN)C(=O)N[C@@H](CCCCN)C(=O)N[C@@H](CC(C)C)C(=O)N[C@H](C(=O)N[C@@H](CC(=O)O)C(=O)N[C@@H](CCCCN)C(=O)N[C@@H](Cc1ccccc1)C(=O)N[C@@H](CC(C)C)C(=O)N[C@@H](Cc1cnc[nH]1)C(=O)N[C@@H](CO)C(=O)N[C@@H](C)C(=O)N[C@@H](CCCCN)C(=O)N[C@@H](CCCCN)C(=O)N[C@@H](Cc1ccccc1)C(N)=O)[C@@H](C)O [KWKSFIKKLTDKFLHSAKKF] | –
12 | – | – | CC(C)C[C@H](NC(=O)[C@H](Cc1ccc(O)cc1)NC(=O)[C@@H]1CCCN1C(=O)[C@@H]1CCCN1C(=O)[C@H](CCCCN)NC(=O)[C@@H]1CCCN1C(=O)[C@@H](N)C(C)C)C(=O)N1CCC[C@H]1C(=O)N[C@@H](CCCN=C(N)N)C(=O)N1CCC[C@H]1C(=O)N[C@@H](CCCN=C(N)N)C(=O)N1CCC[C@H]1C(=O)N1CCC[C@H]1C(=O)N[C@@H](CCCN=C(N)N)C(=O)N[C@@H](CCCN=C(N)N)C(=O)N[C@@H](CCCCN)C(=O)N[C@@H](Cc1ccc(O)cc1)C(=O)N[C@@H](CC(N)=O)C(=O)N[C@@H](CCCN=C(N)N)C(N)=O [VPKPPYLPRPRPPRRKYNR] | MIC [7]: 13.4 µM (≈ 32 µg/mL); MIC [8]: 1.68 µM (≈ 4 µg/mL); MIC [9]: 0.544 µM (≈ 1.3 µg/mL)
13 | 2.5 µM (≈ 7.22 µg/mL) | – | CC[C@H](C)[C@H](NC(=O)[C@H](Cc1c[nH]c2ccccc12)NC(=O)[C@H](CCCCN)NC(=O)[C@@H](NC(=O)[C@H](CC(C)C)NC(=O)[C@H](CCCCN)NC(=O)CNC(=O)[C@@H](NC(=O)[C@@H](NC(=O)[C@H](CO)NC(=O)[C@@H](NC(=O)[C@@H](NC(=O)[C@H](CCCCN)NC(=O)[C@H](CCC(N)=O)NC(=O)[C@H](C)N)[C@@H](C)CC)[C@@H](C)CC)[C@@H](C)O)[C@@H](C)CC)C(C)C)C(=O)N[C@H](C(=O)N[C@@H](CCCCN)C(=O)N[C@H](C(=O)N[C@H](C(=O)N[C@@H](CC(N)=O)C(=O)N[C@@H](CCCCN)C(=O)N[C@@H](Cc1ccccc1)C(=O)N[C@H](C(=O)N[C@@H](CCCCN)C(=O)N[C@@H](CCCCN)C(=O)O)[C@@H](C)O)C(C)C)[C@@H](C)O)[C@@H](C)CC [AQKIISTIGKLVKWIIKTVNKFTKK] | MIC [6]: 10.3 µM (≈ 29.7 µg/mL)
14 | 5.3 µM (≈ 10.5 µg/mL) | 21.2 µM (≈ 42 µg/mL) | CC[C@H](C)[C@H](NC(=O)[C@H](C)NC(=O)[C@H](CC(C)C)NC(=O)[C@H](CCCCN)NC(=O)[C@H](CC(C)C)NC(=O)[C@@H](NC(=O)[C@@H](NC(=O)[C@@H](N)CCCCN)[C@@H](C)CC)[C@@H](C)O)C(=O)N[C@@H](CCCCN)C(=O)N[C@@H](C)C(=O)N[C@@H](Cc1c[nH]c2ccccc12)C(=O)N[C@@H](CCCCN)C(=O)N[C@@H](CC(C)C)C(=O)N[C@@H](C)C(=O)N[C@@H](CC(C)C)C(=O)N[C@@H](CCCCN)C(=O)N[C@@H](C)C(=O)N[C@@H](C)C(N)=O [KITLKLAIKAWKLALKAA] | MIC [6]: 5.3 µM (≈ 10.5 µg/mL)
